Measured values taken from patent US8513232B2, “Substituted spirocyclic piperidine derivatives as histamine-3 (H3) receptor ligands” (Cephalon, Inc., priority 2008, dated 2013).
Values joined by “and” are separate entries in the source; they are usually repeats but may differ in a detail not shown here. Equal entries are not always repeated. Where two headings read alike, the source gives them in different places.

Assays:
[1] = target: T1, human H3 receptor (Homo sapiens, UniProt Q9Y5N1); assay: Human H3 radioligand binding ([3H]-N-alpha-methylhistamine, SPA)
T1 construct: expressed in transfected cells
T1 sequence (Q9Y5N1 whole entry): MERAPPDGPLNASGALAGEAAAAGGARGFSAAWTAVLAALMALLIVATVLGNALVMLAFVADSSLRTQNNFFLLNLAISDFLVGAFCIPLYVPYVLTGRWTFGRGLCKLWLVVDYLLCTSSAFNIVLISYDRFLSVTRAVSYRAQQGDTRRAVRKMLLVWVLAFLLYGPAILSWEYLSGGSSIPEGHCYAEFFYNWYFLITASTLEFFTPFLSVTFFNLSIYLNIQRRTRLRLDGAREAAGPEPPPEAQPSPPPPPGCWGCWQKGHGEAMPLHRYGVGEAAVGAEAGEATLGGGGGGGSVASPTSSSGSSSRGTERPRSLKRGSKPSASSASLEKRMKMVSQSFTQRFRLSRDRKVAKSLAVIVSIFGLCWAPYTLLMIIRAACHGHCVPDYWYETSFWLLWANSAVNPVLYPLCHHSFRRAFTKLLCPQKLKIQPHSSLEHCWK
Procedure, shortened: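 SPA competition binding on membranes from CHO cells stably expressing human H3 receptor (10 μg protein/well) with ~1 nM [3H]-N-alpha-methylhistamine and compound at 0.01 nM-30 μM. Incubation 4 h at room temperature in 50 mM Tris-HCl pH 7.4, 5 mM MgCl2, 0.1% BSA; non-specific binding defined with 10 μM clobenpropit.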

[2] = target: T2, rat histamine H3 receptor (Rattus norvegicus, UniProt Q9QYN8); assay: Rat H3 radioligand binding ([3H]-N-alpha-methylhistamine, SPA)
T2 construct: encoding the entire 445-amino-acid rat histamine H3 receptor; expressed in transfected cells; membrane preparation
T2 sequence (Q9QYN8 whole entry): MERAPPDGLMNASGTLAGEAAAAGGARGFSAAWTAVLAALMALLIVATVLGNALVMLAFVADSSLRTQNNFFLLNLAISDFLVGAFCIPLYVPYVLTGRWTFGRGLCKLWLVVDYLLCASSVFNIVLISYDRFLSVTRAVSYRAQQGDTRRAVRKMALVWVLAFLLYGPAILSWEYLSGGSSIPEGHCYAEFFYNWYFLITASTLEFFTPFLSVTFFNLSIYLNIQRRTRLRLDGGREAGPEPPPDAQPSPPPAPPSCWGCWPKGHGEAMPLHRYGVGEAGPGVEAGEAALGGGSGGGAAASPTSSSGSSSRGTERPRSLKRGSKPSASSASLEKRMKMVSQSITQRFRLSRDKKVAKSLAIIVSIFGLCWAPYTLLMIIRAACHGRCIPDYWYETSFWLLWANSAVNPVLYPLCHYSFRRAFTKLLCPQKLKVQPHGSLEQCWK
Procedure, shortened: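 Membranes from CHO-A3 cells stably expressing full-length rat H3 receptor (10 μg protein/well) incubated 4 h at room temperature, protected from light, with ~1 nM [3H]-N-alpha-methylhistamine and compound (0.01 nM-30 μM) in 50 mM Tris HCl pH 7.4, 5 mM MgCl2, 0.1% BSA. Binding read by SPA; 10 μM clobenpropit defined non-specific binding.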

[3] = Table C, human H3 binding, read-out: Human H3 Ki
[4] = Table C, rat H3 binding, read-out: Rat H3 Ki

Row | SMILES | Ki [1, 3] [nM] | Ki [2, 4] [nM] | melting point | Ki [1] [nM] | Ki [2] [nM] | Ki ([1]; read-out: Human H3 Ki) [nM] | Ki ([2]; read-out: Rat H3 kI) [nM]
1 | O=C(C1CC1)N1CCC(Oc2ccc3c(c2)CCC2(CCN(C4CCC4)CC2)O3)CC1 [Example 435] | < 200 | < 200 | 243 to 245 °C | – | – | – | –
2 | CN(C)C(=O)C1CCN(c2ccc3c(c2)CCC2(CCN(C4CCC4)CC2)O3)CC1 [Example 436] | < 200 | < 200 | 140 to 142 °C | – | – | – | –
3 | O=S(=O)(C1CC1)N1CCC(Oc2ccc3c(c2)CCC2(CCN(C4CCC4)CC2)O3)CC1 [Example 437] | < 200 | < 200 | 233 to 235 °C | – | – | – | –
4 | c1cc2c(cc1N1CCC1)CCC1(CCN(C3CCC3)CC1)O2 [Example 438] | < 200 | < 200 | 118 to 120 °C | – | – | – | –
5 | CNC(=O)c1ccc(OC2CCN(c3ccc4c(c3)CCC3(CCN(C5CCC5)CC3)O4)CC2)nc1 [Example 439] | < 200 | < 200 | 214 to 216 °C | – | – | – | –
6 | CC(C)S(=O)(=O)N1CCC(Oc2ccc3c(c2)CCC2(CCN(C4CCC4)CC2)O3)CC1 [Example 440] | – | – | 233 to 235 °C | < 200 | < 200 | – | –
7 | CCS(=O)(=O)N1CCC(Oc2ccc3c(c2)CCC2(CCN(C4CCC4)CC2)O3)CC1 [Example 441] | < 200 | < 200 | 226 to 229 °C | – | – | – | –
8 | CC(C)(C)OC(=O)N1CC[C@@H](Oc2ccc3c(c2)CCC2(CCN(C4CCC4)CC2)O3)C1 [Example 442] | < 200 | < 200 | 280 to 283 °C | – | – | – | –
9 | c1cc2c(cc1O[C@@H]1CCOC1)CCC1(CCN(C3CCC3)CC1)O2 [Example 443] | < 200 | 200 to 1000 | 261 to 263 °C | – | – | – | –
10 | c1cc2c(cc1OCC1CC1)CCC1(CCN(C3CCC3)C1)O2 (stereo not drawn) [Example 446] | – | – | 177 to 178 °C | – | – | 200 to 1000 | 200 to 1000
11 | O=C(OCc1ccccc1)N1CC=C(c2ccc3c(c2)CCC2(CCN(C4CCC4)CC2)O3)CC1 [Example 447] | – | – | 237 to 239 °C | – | – | < 200 | < 200
12 | Cn1cc2c(n1)CCC(c1ccc3c(c1)CCC1(CCN(C4CCC4)CC1)O3)=C2 [Example 448] | – | – | 205 to 208 °C | – | – | < 200 | < 200
13 | c1cc2c(cc1O[C@H]1CCOC1)CCC1(CCN(C3CCC3)CC1)O2 [Example 450] | – | – | 259 to 261 °C | – | – | < 200 | < 200
14 | O=C(C1CCCN(c2ccc3c(c2)CCC2(CCN(C4CCC4)CC2)O3)C1)N1CCCC1 (stereo not drawn) [Example 451] | – | – | 305 to 307 °C | – | – | < 200 | < 200
15 | c1cc2c(cc1C1CCNCC1)CCC1(CCN(C3CCC3)CC1)O2 [Example 452] | – | – | 88 to 90 °C | – | – | < 200 | < 200
16 | CNC(=O)C1CCN(c2ccc3c(c2)COC2(CCN(C4CCC4)CC2)O3)CC1 [Example 453] | – | – | > 245 °C (dec.) | – | – | < 200 | < 200
17 | c1cc(-c2ccc3c(c2)CCC2(CCN(C4CCC4)CC2)O3)cs1 [Example 454] | – | – | 110 to 112 °C | – | – | < 200 | < 200
18 | CCOC(=O)C1CC=C(c2ccc3c(c2)CCC2(CCN(C4CCC4)CC2)O3)CC1 (stereo not drawn) [Example 455] | – | – | 137 to 139 °C | – | – | < 200 | < 200
19 | CCOC(=O)C1CCC(Oc2ccc3c(c2)CCC2(CCN(C4CCC4)CC2)O3)CC1 (stereo not drawn) [Example 456] | – | – | 236 to 238 °C | – | – | < 200 | < 200
20 | O=C1CCCN1CCOc1ccc2c(c1)CCC1(CCN(C3CCC3)CC1)O2 [Example 458] | – | – | 170 to 172 °C | – | – | < 200 | < 200
21 | Cn1cc2c(n1)CCC(c1ccc3c(c1)COC1(CCN(C4CCC4)CC1)O3)=C2 [Example 459] | – | – | 149 to 150 °C | – | – | < 200 | < 200
22 | O=C1CCC(=O)N1CCCOc1ccc2c(c1)CCC1(CCN(C3CCC3)CC1)O2 [Example 460] | – | – | 235 to 237 °C | – | – | < 200 | < 200
23 | [O-][S+]1CC=C(c2ccc3c(c2)COC2(CCN(C4CCC4)CC2)O3)CC1 (stereo not drawn) [Example 461] | – | – | 155 to 158 °C | – | – | < 200 | < 200
24 | O=C1CCCN1CCCOc1ccc2c(c1)CCC1(CCN(C3CCC3)CC1)O2 [Example 462] | – | – | 196 to 198 °C | – | – | < 200 | < 200
25 | c1cc2c(cc1OCC1CCOC1)CCC1(CCN(C3CCC3)CC1)O2 (stereo not drawn) [Example 463] | – | – | 97 to 99 °C | – | – | < 200 | < 200
26 | OC1(c2ccc3c(c2)COC2(CCN(C4CCC4)CC2)O3)CCSCC1 [Example 465] | – | – | 174 to 176 °C | – | – | < 200 | < 200

Row | SMILES | Ki [1, 3] [nM] | Ki [2, 4] [nM] | melting point | Ki [1] [nM] | Ki [2] [nM] | Ki ([1]; read-out: Human H3 Ki) [nM] | Ki ([2]; read-out: Rat H3 kI) [nM]
27 | C1=C(c2ccc3c(c2)COC2(CCN(C4CCC4)CC2)O3)CCSC1 [Example 466] | – | – | 162 to 163 °C | – | – | < 200 | < 200
28 | O=S1(=O)CCC(Oc2ccc3c(c2)CCC2(CCN(C4CCC4)CC2)O3)CC1 [Example 467] | – | – | 239 to 241 °C and 239 to 240 °C | – | – | < 200 | < 200
29 | O=C(C1CCN(c2ccc3c(c2)COC2(CCN(C4CCC4)CC2)O3)CC1)N1CCOCC1 [Example 468] | – | – | 282 to 284 °C | – | – | < 200 | < 200
30 | Cn1cc2c(n1)CCC(c1ccc3c(c1)COC1(CCN(C4CCC4)CC1)O3)C2 (stereo not drawn) [Example 469] | – | – | 138 to 140 °C | – | – | < 200 | < 200
31 | COc1cnc(-c2ccc3c(c2)COC2(CCN(C4CCC4)CC2)O3)nc1 [Example 470] | – | – | 113 to 115 °C | – | – | < 200 | < 200
32 | OC1(c2ccc3c(c2)COC2(CCN(C4CCC4)CC2)O3)CCSC1 (stereo not drawn) [Example 471] | – | – | 125 to 126 °C | – | – | < 200 | < 200
33 | [O-][S+]1CC=C(c2ccc3c(c2)COC2(CC[N+]([O-])(C4CCC4)CC2)O3)CC1 (stereo not drawn) [Example 472] | – | – | 130 to 133 °C | – | – | < 200 | < 200
34 | [O-][S+]1CCC(c2ccc3c(c2)COC2(CCN(C4CCC4)CC2)O3)CC1 (stereo not drawn) [Example 473] | – | – | 187 to 189 °C | – | – | < 200 | < 200
35 | O=c1cc(-c2ccc3c(c2)COC2(CCN(C4CCC4)CC2)O3)cc[nH]1 [Example 475] | – | – | 211 to 213 °C | – | – | < 200 | < 200
36 | O=c1cccc(-c2ccc3c(c2)COC2(CCN(C4CCC4)CC2)O3)[nH]1 [Example 476] | – | – | 207 to 209 °C | – | – | < 200 | < 200
37 | OC1(c2ccc3c(c2)COC2(CCN(C4CCC4)CC2)O3)CCOCC1 [Example 477] | – | – | 157 to 159 °C | – | – | < 200 | < 200
38 | C1=C(c2ccc3c(c2)COC2(CCN(C4CCC4)CC2)O3)CCOC1 [Example 478] | – | – | 168 to 169 °C | – | – | < 200 | < 200
39 | c1cc2c(cc1C1CCOCC1)COC1(CCN(C3CCC3)CC1)O2 [Example 479] | – | – | 249 to 251 °C | – | – | < 200 | < 200
40 | c1cc2c(cc1C1CCSCC1)COC1(CCN(C3CCC3)CC1)O2 [Example 480] | – | – | 153 to 155 °C | – | – | < 200 | < 200
41 | COc1ccc(Oc2ccc3c(c2)CCC2(CCN(C4CCC4)CC2)O3)cn1 [Example 481] | – | – | 232 to 234 °C | – | – | < 200 | < 200
42 | O=C(C1CC(O)(c2ccc3c(c2)COC2(CCN(C4CCC4)CC2)O3)C1)N1CCCC1 (stereo not drawn) [Example 482] | – | – | 157 to 159 °C | – | – | < 200 | < 200
43 | COc1ccnc(-c2ccc3c(c2)COC2(CCN(C4CCC4)CC2)O3)n1 [Example 483] | – | – | 100 to 102 °C | – | – | < 200 | < 200
44 | O=c1ccc(Oc2ccc3c(c2)CCC2(CCN(C4CCC4)CC2)O3)c[nH]1 [Example 485] | – | – | 284 to 286 °C | – | – | < 200 | < 200
45 | COc1cc(Oc2ccc3c(c2)CCC2(CCN(C4CCC4)CC2)O3)ccn1 [Example 486] | – | – | 125 to 127 °C | – | – | < 200 | < 200
46 | CCOC(=O)C1CC=C(c2ccc3c(c2)COC2(CCN(C4CCC4)CC2)O3)CC1 (stereo not drawn) [Example 487] | – | – | 263 to 265 °C | – | – | < 200 | < 200
47 | O=c1[nH]cccc1-c1ccc2c(c1)COC1(CCN(C3CCC3)CC1)O2 [Example 488] | – | – | 167 to 169 °C | – | – | < 200 | < 200
48 | O=S1(=O)CCC(c2ccc3c(c2)COC2(CCN(C4CCC4)CC2)O3)CC1 [Example 489] | – | – | 210 to 211 °C | – | – | < 200 | < 200
49 | O=S1(=O)CCC(Oc2ccc3c(c2)CCC2(CCN(C4CCC4)CC2)O3)C1 (stereo not drawn) [Example 490] | – | – | 252 to 254 °C | – | – | < 200 | < 200
50 | O=S1(=O)CCC(c2ccc3c(c2)COC2(CCN(C4CCC4)CC2)O3)C1 (stereo not drawn) [Example 491] | – | – | 151 to 152 °C | – | – | < 200 | < 200
51 | OC1(c2ccc3c(c2)COC2(CCN(C4CCC4)CC2)O3)CCC2(CC1)OCCO2 [Example 492] | – | – | 191 to 192 °C | – | – | < 200 | < 200
52 | O=c1cc(Oc2ccc3c(c2)CCC2(CCN(C4CCC4)CC2)O3)cc[nH]1 [Example 493] | – | – | 186 to 188 °C | – | – | < 200 | < 200
